From patent US8618300B2, “Indolizine inhibitors of leukotriene production” (Boehringer Ingelheim International GmbH, priority 2008, dated 2013)

Target: T1, recombinant human FLAP protein (Homo sapiens, UniProt P20292)
T1 construct: made in house; host or cells: Sf9 insect cells (100,000 x g membrane pellet)
T1 sequence (P20292 1-161): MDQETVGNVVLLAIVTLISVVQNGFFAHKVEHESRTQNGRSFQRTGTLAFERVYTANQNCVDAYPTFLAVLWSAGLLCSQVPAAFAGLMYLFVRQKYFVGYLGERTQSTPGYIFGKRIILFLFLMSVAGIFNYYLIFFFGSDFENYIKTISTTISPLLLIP
Assay: FLAP binding assay, Scintillation Proximity Assay, displacement of [125I]L-691,831
Conditions: read-out: hFLAP binding IC50
Description: Compounds are assessed for the ability to bind to FLAP in a binding assay that measures compound-specific displacement of an iodinated (^1251) FLAP inhibitor via a Scintillation Proximity Assay format (adapted from S. Charleson et al., Mol. Pharmacol., 1992, 41, 873-879).
Cell pellets produced from sf9 insect cells expressing recombinant human FLAP protein are resuspended in buffer A [15 mM Tris-HCl (pH 7.5), 2 mM MgCl2, 0.3 mM EDTA, 1 mM PMSF]. The cells are lysed with a Dounce homogenizer and the material is centrifuged at 10,000×g for 10 minutes. The supernatant is then collected and centrifuged at 100,000×g for 60 minutes. To prepare membrane protein for an assay, an aliquot of the 100,000×g pellet is resuspended in 1 ml of buffer A, Dounce homogenized, and finally subjected to polytron mixing (30 seconds). Membrane protein (25 μl, 5 μg) is mixed with WGA SPA beads (Amersham) and stirred for 1 h. To an assay plate (Perkin Elmer FlexiPlate) is added 25 μl of test compound prepared in Binding buffer [100 mM Tris (pH 7.5), 140 mM NaCl, 5% glycerol, 2 mM EDTA, 0.5 mM TCEP, 0.05% Tween 20], 25 μl of [^125I]L-691,831 (an iodinated analog of MK-591, Charleson et al. Mol. Pharmacol., 41, 873-879, 1992) and finally 50 μl of the bead/protein mixture. (final concentrations: beads, 200 μg/well; protein, 5 μg/well; [^125I] probe, 0 08 nM/well (17 nCi/well). The plates are shaken for 2 h before reading on a Microbeta plate reader. Non-specific binding is determined by the addition of 10 μM cold L-691,831 compound.

| SMILES | IC50 [nM] |
| --- | --- |
| COc1ccc(-c2ccc(C(=O)c3c(CC(C)(C)C(=O)O)c(C(=O)C(C)(C)C)c4cc(C(C)C)ccn34)cc2)cn1 | 232 |
| CC(C)(C)C(=O)c1c(CC(C)(C)C(=O)O)c(C(=O)c2ccc(Cl)cc2)c2ccc(OCc3ccc4ccccc4n3)cn12 | 14 |
| Cc1nc(COc2ccn3c(C(=O)c4ccc(Cl)cc4)c(CC(C)(C)C(=O)O)c(C(=O)C(C)(C)C)c3c2)no1 | 90 |
| COc1ccc(C(=O)c2c(CC(C)(C)C(=O)O)c(C(=O)C(C)(C)C)c3cc(OCc4nc5ccccc5s4)ccn23)cc1 | 1 |
| CC(C)(C)C(=O)c1c(CC(C)(C)C(=O)O)c(C(=O)c2ccc(Cl)cc2)n2ccc(OCc3nc4ccccc4s3)cc12 | 4 |
| CCC(C)(Cc1c(C(=O)C(C)(C)C)c2cc(OCc3csc(C)n3)ccn2c1C(=O)c1ccc(OC)cc1)C(=O)O (stereo not shown) [2-({1-(2,2-dimethylpropanoyl)-3-[(4-methoxyphenyl)carbonyl]-7-[(2-methyl-1,3-thiazol-4-yl)methoxy]indolizin-2-yl}methyl)-2-methylbutanoic acid] | 2 |
| COc1ccc(C(=O)c2c(CC(C(=O)O)C(C)C)c(C(=O)C(C)(C)C)c3cc(OCc4csc(C)n4)ccn23)cc1 (stereo not shown) [2-({1-(2,2-dimethylpropanoyl)-3-[(4-methoxyphenyl)carbonyl]-7-[(2-methyl-1,3-thiazol-4-yl)methoxy]indolizin-2-yl}methyl)-3-methylbutanoic acid] | 13 |
| CCCC(Cc1c(C(=O)C(C)(C)C)c2cc(OCc3csc(C)n3)ccn2c1C(=O)c1ccc(OC)cc1)C(=O)O (stereo not shown) [2-({1-(2,2-dimethylpropanoyl)-3-[(4-methoxyphenyl)carbonyl]-7-[(2-methyl-1,3-thiazol-4-yl)methoxy]indolizin-2-yl}methyl)pentanoic acid] | 7 |
| COc1ccc(C(=O)c2c(CC(C(=O)O)C(C)C)c(C(=O)C(C)(C)C)c3cc(OCc4nc(C)cs4)ccn23)cc1 (stereo not shown) [2-({1-(2,2-dimethylpropanoyl)-3-[(4-methoxyphenyl)carbonyl]-7-[(4-methyl-1,3-thiazol-2-yl)methoxy]indolizin-2-yl}methyl)-3-methylbutanoic acid] | 4 |
| CCC(C)(Cc1c(C(=O)C(C)(C)C)c2cc(OCc3cccc(C)n3)ccn2c1C(=O)c1ccc(OC)cc1)C(=O)O (stereo not shown) [2-({1-(2,2-dimethylpropanoyl)-3-[(4-methoxyphenyl)carbonyl]-7-[(6-methylpyridin-2-yl)methoxy]indolizin-2-yl}methyl)-2-methylbutanoic acid] | 2 |
| COc1ccc(C(=O)c2c(CC(C(=O)O)C(C)C)c(C(=O)C(C)(C)C)c3cc(OCc4cccc(C)n4)ccn23)cc1 (stereo not shown) [2-({1-(2,2-dimethylpropanoyl)-3-[(4-methoxyphenyl)carbonyl]-7-[(6-methylpyridin-2-yl)methoxy]indolizin-2-yl}methyl)-3-methylbutanoic acid] | 3 |
| CCCC(Cc1c(C(=O)C(C)(C)C)c2cc(OCc3cccc(C)n3)ccn2c1C(=O)c1ccc(OC)cc1)C(=O)O (stereo not shown) [2-({1-(2,2-dimethylpropanoyl)-3-[(4-methoxyphenyl)carbonyl]-7-[(6-methylpyridin-2-yl)methoxy]indolizin-2-yl}methyl)pentanoic acid] | 3 |
| CCCC(Cc1c(C(=O)C(C)(C)C)c2cc(OCc3nc(C)cs3)ccn2c1C(=O)c1ccc(Cl)c(Cl)c1)C(=O)O (stereo not shown) [2-({3-[(3,4-dichlorophenyl)carbonyl]-1-(2,2-dimethylpropanoyl)-7-[(4-methyl-1,3-thiazol-2-yl)methoxy]indolizin-2-yl}methyl)pentanoic acid] | 15 |
| CCCC(Cc1c(C(=O)C(C)(C)C)c2cc(OCc3cccc(C)n3)ccn2c1C(=O)c1ccc(Cl)c(Cl)c1)C(=O)O (stereo not shown) [2-({3-[(3,4-dichlorophenyl)carbonyl]-1-(2,2-dimethylpropanoyl)-7-[(6-methylpyridin-2-yl)methoxy]indolizin-2-yl}methyl)pentanoic acid] | 2 |
| CCCC(Cc1c(C(=O)C(C)(C)C)c2cc(OCc3cccc(C)n3)ccn2c1C(=O)c1ccc(Cl)c(C)c1)C(=O)O (stereo not shown) [2-({3-[(4-chloro-3-methylphenyl)carbonyl]-1-(2,2-dimethylpropanoyl)-7-[(6-methylpyridin-2-yl)methoxy]indolizin-2-yl}methyl)pentanoic acid] | 3 |
| COc1ccc(C(=O)c2c(CC(C(=O)O)C(C)C)c(C(=O)C(C)(C)C)c3cc(OCc4nc5ccccc5s4)ccn23)cc1 (stereo not shown) [2-({7-(1,3-benzothiazol-2-ylmethoxy)-1-(2,2-dimethylpropanoyl)-3-[(4-methoxyphenyl)carbonyl]indolizin-2-yl}methyl)-3-methylbutanoic acid] | 1 |
| COc1ccc(C(=O)c2c(CC(C(=O)O)C(C)C)c(C(=O)C(C)(C)C)c3cc(OCc4ccc5ccccc5n4)ccn23)cc1 (stereo not shown) [2-{[1-(2,2-dimethylpropanoyl)-3-[(4-methoxyphenyl)carbonyl]-7-(quinolin-2-ylmethoxy)indolizin-2-yl]methyl}-3-methylbutanoic acid] | 1 |
| COc1ccc(C(=O)c2c(CC(C)(C)C(=O)O)c(C(=O)C(C)(C)C)c3cc(OCc4ccc5ccccc5n4)ccn23)cc1 [3-[1-(2,2-dimethylpropanoyl)-3-[(4-methoxyphenyl)carbonyl]-7-(quinolin-2-ylmethoxy)indolizin-2-yl]-2,2-dimethylpropanoic acid] | 1 |
| COc1ccncc1-c1ccc(C(=O)c2c(CC(C)(C)C(=O)O)c(C(=O)C(C)(C)C)c3cc(OCc4ccccn4)ccn23)cc1 [3-[1-(2,2-dimethylpropanoyl)-3-{[4-(4-methoxypyridin-3-yl)phenyl]carbonyl}-7-(pyridin-2-ylmethoxy)indolizin-2-yl]-2,2-dimethylpropanoic acid] | 67 |
| COc1cncc(-c2ccc(C(=O)c3c(CC(C)(C)C(=O)O)c(C(=O)C(C)(C)C)c4cc(OCc5ccccn5)ccn34)cc2)c1 [3-[1-(2,2-dimethylpropanoyl)-3-{[4-(5-methoxypyridin-3-yl)phenyl]carbonyl}-7-(pyridin-2-ylmethoxy)indolizin-2-yl]-2,2-dimethylpropanoic acid] | 22 |
| CC(C)c1ccn2c(C(=O)c3ccc(-c4cccnc4)cc3)c(CC(C)(C)C(=O)O)c(C(=O)C(C)(C)C)c2c1 [3-[1-(2,2-dimethylpropanoyl)-7-(propan-2-yl)-3-{[4-(pyridin-3-yl)phenyl]carbonyl}indolizin-2-yl]-2,2-dimethylpropanoic acid] | 165 |
| CC(C)c1ccn2c(C(=O)c3ccc(C(F)(F)F)cc3)c(CC(C)(C)C(=O)O)c(C(=O)C(C)(C)C)c2c1 [3-[1-(2,2-dimethylpropanoyl)-7-(propan-2-yl)-3-{[4-(trifluoromethyl)phenyl]carbonyl}indolizin-2-yl]-2,2-dimethylpropanoic acid] | 316 |
| Cc1nc(COc2ccn3c(C(=O)c4ccccc4)c(CC(C)(C)C(=O)O)c(C(=O)C(C)(C)C)c3c2)cs1 [3-[1-(2,2-dimethylpropanoyl)-7-[(2-methyl-1,3-thiazol-4-yl)methoxy]-3-(phenylcarbonyl)indolizin-2-yl]-2,2-dimethylpropanoic acid] | 101 |
| CC(C)(C)C(=O)c1c(CC(C)(C)C(=O)O)c(C(=O)c2ccc(Cl)cc2)c2ccc(OCc3nc4ccccc4s3)cn12 [3-[6-(1,3-benzothiazol-2-ylmethoxy)-1-[(4-chlorophenyl)carbonyl]-3-(2,2-dimethylpropanoyl)indolizin-2-yl]-2,2-dimethylpropanoic acid] | 9 |
| COc1ccc(C(=O)c2c(CC(C)(C)C(=O)O)c(C(=O)C(C)(C)C)c3cc(OCc4nc(C)cs4)ccn23)cc1 [3-{1-(2,2-dimethylpropanoyl)-3-[(4-methoxyphenyl)carbonyl]-7-[(4-methyl-1,3-thiazol-2-yl)methoxy]indolizin-2-yl}-2,2-dimethylpropanoic acid] | 3 |
| Cc1ccc(C(=O)c2c(CC(C)(C)C(=O)O)c(C(=O)C(C)(C)C)c3cc(OCc4cccc(C)n4)ccn23)cc1 [3-{1-(2,2-dimethylpropanoyl)-3-[(4-methylphenyl)carbonyl]-7-[(6-methylpyridin-2-yl)methoxy]indolizin-2-yl}-2,2-dimethylpropanoic acid] | 3 |
| CC(C)(C)C(=O)c1c(CC(C)(C)C(=O)O)c(C(=O)c2ccc(Cl)cc2)c2ccc(OCc3ccccn3)cn12 [3-{1-[(4-chlorophenyl)carbonyl]-3-(2,2-dimethylpropanoyl)-6-(pyridin-2-ylmethoxy)indolizin-2-yl}-2,2-dimethylpropanoic acid] | 79 |
| Cc1nc(COc2ccc3c(C(=O)c4ccc(Cl)cc4)c(CC(C)(C)C(=O)NS(C)(=O)=O)c(C(=O)C(C)(C)C)n3c2)cs1 [3-{1-[(4-chlorophenyl)carbonyl]-3-(2,2-dimethylpropanoyl)-6-[(2-methyl-1,3-thiazol-4-yl)methoxy]indolizin-2-yl}-2,2-dimethyl-N-(methylsulfonyl)propanamide] | 4 |
